Drawing on patent US20090029968A1, “QUINAZOLINE DERIVATIVES USED AS INHIBITORS OF ERBB TYROSINE KINASE” (priority 2005, published 2009), this text covers IC50 for two molecules.

One assay deals with T1, EGFR tyrosine kinase (Homo sapiens, UniProt P00533).
T1 construct: Recombinant intracellular fragments of EGFR, erbB2 and erbB4; made in house; host or cells: baculovirus/Sf21 insect cells (cleared lysate used)
Nature of the assay: Test (a) protein tyrosine kinase phosphorylation assay, EGFR. The format is biochemical. The settings on record: recombinant intracellular fragment, ATP at Km; read-out: IC50 Test (a): Inhibition of EGFR tyrosine kinase protein phosphorylation. On the procedure:
(§1) a) Protein Tyrosine Kinase phosphorylation Assays
(§2) This test measures the ability of a test compound to inhibit the phosphorylation of a tyrosine containing polypeptide substrate by EGFR, erbB2 and erbB4 tyrosine kinase enzyme.
(§3) Recombinant intracellular fragments of EGFR, erbB2 and erbB4 (accession numbers X00588, X03363 and L07868 respectively) were cloned and expressed in the baculovirus/Sf21 system. […]
(§4) Constitutive kinase activity of these recombinant proteins was determined by their ability to phosphorylate a synthetic peptide (made up of a random co-polymer of Glutamic Acid, Alanine and Tyrosine in the ratio of 6:3:1). […]
(§5) The immobilised phospho-peptide product of the reaction was detected by immunological methods. […] After further washing, HRP activity in each well of the plate was measured […] using 22′-Azino-di-[3-ethylbenzthiazoline sulfonate (6)] diammonium salt crystals (ABTS™ from Roche) as a substrate.
(§6) Quantification of colour development and thus enzyme activity was achieved by the measurement of absorbance at 405 nm on a Molecular Devices ThermoMax microplate reader. Kinase inhibition for a given compound was expressed as an IC50 value. […] The range of phosphorylation was calculated from the positive (vehicle plus ATP) and negative (vehicle minus ATP) control values.

The target of the next assay is T2, erbB2 tyrosine kinase (Homo sapiens, UniProt P04626).
T2 construct: Recombinant intracellular fragments of EGFR, erbB2 and erbB4; made in house; host or cells: baculovirus/Sf21 insect cells (cleared lysate used)
Put plainly: Test (a) protein tyrosine kinase phosphorylation assay, erbB2. The assay is classed as biochemical. As to conditions: recombinant intracellular fragment, ATP at Km; read-out: IC50 Test (a): Inhibition of erbB2 tyrosine kinase protein phosphorylation. On the procedure: as §1, §2, §3, §4, §5, §6

A further assay relates to BT474C cells. Put plainly: Test (e) BT474C cell proliferation assay. The settings on record: Homo sapiens, 96 h, four-day MTS endpoint, read-out: IC50 Test (e): Inhibition of proliferation of BT474C cells. The assay is classed as cell-based. The source says: The BT-474 tumour cell line (human mammary carcinoma) was obtained from Dr Baselga (at Laboratorio Recerca Oncologica, Paseo Vall D'Hebron 119-129, Barcelona 08035, Spain). This cell line was subcloned and a certain population (hereinafter referred to as “BT474C”) was obtained.
e) BT474C Cell Proliferation Assay
BT474C cells are a sub-cloned population of in vivo competent cells, as discussed above.
The BT474C assay is a MTS (3-(4,5-dimethylthiazol-2-yl)-5-(3-carboxymethoxyphenyl)-2-(4-sulfophenyl)-2H-tetrazolium, inner salt—Promega G1111) endpoint-based cell proliferation assay, which measures the ability of a test compound to inhibit the proliferation of cells over a four-day period. […] Cell density is measured using a haemocytometer and viability is calculated using Trypan Blue solution before being further diluted in Assay Medium and seeded at a density of 1×10^4 cells per well (in 100 ul) into clear bottomed 96 well plates (Costar 3598). […] The plate is read at 490 nm on a spectrophotometer.
Assay plates are left at 37° C. for 4 days and then treated with MTS solution (as above), which is converted to a soluble formazan product by active cells. After incubating the plates for 2 hours the reaction is stopped by the addition of 10% SDS (Sodium dodecyl sulphate) and the plates are read at 490 nm on a spectrophotometer giving absorbance values relative to the concentration of converted dye. […]

SMILES strings stand for the structures.

T1 sequence (P00533 669-1210 limits assumed): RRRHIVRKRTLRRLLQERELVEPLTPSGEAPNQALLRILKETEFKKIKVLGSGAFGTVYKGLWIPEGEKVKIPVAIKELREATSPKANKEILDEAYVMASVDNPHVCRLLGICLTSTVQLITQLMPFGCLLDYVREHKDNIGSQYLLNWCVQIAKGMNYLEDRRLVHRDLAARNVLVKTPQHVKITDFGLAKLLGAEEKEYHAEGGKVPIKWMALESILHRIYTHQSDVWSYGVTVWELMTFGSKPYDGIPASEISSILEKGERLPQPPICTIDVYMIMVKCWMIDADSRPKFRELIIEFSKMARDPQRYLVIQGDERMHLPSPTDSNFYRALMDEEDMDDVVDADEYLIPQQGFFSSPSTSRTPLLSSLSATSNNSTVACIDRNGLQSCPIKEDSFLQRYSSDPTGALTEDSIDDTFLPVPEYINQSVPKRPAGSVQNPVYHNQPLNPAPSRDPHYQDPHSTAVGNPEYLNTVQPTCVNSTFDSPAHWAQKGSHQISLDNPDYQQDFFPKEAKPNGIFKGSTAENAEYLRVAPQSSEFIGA
T2 sequence (P04626 676-1255 limits assumed): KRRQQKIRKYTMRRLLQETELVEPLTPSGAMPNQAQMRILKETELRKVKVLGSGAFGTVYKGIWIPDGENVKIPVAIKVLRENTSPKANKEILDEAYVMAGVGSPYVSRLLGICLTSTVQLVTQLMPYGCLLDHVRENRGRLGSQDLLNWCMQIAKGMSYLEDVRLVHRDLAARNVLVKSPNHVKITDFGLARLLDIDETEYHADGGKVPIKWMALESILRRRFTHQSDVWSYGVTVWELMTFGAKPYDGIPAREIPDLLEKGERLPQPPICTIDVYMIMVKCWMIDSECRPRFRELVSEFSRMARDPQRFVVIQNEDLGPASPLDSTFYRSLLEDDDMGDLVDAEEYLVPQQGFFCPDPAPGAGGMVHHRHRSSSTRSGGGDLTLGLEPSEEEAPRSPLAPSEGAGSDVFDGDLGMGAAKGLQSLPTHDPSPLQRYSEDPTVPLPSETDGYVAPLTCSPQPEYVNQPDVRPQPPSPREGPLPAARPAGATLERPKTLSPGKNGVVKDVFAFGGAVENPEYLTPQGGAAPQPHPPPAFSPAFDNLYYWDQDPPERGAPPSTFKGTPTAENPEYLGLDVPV

With `C[C@@H](Oc1cccc2ncnc(Nc3ccc(C(=O)N4CCCCCC4)c(Cl)c3)c12)C(=O)N(C)CCO` [Example 1, (2R)-2-[(4-{[4-(azepan-1-ylcarbonyl)-3-chlorophenyl]amino}quinazolin-5-yl)oxy]-N-(2-hydroxyethyl)-N-methylpropanamide], the figures for the IC50 on EGFR tyrosine kinase, on erbB2 tyrosine kinase and with BT474C cells were 333 nM, 15 nM and 179 nM, respectively.
Regarding `C[C@@H](Oc1cccc2ncnc(Nc3ccc(C(=O)N4CCCCC4)c(Cl)c3)c12)C(=O)N(C)CCO` [Example 2, (2R)-2-[(4-{[3-chloro-4-(piperidin-1-ylcarbonyl)phenyl]amino}quinazolin-5-yl)oxy]-N-(2-hydroxyethyl)-N-methylpropanamide], the IC50 on EGFR tyrosine kinase came to 869 nM; on erbB2 tyrosine kinase, 22 nM; in the assay with BT474C cells it was 857 nM.
